Results reported in the Deep4Chem optical property database.

Experiment: solvent given as SMILES

CCC(CC)COC1=CC2=C3c4cc(OCC(CC)CC)c(-c5cccs5)n4[B-](F)(F)[n+]4c3n(c3cc(C(C)(C)C)ccc34)[B-](F)(F)[N+]2=C1c1cccs1 gave an absorption maximum (in C1CCOC1) of 792 nm and an absorption maximum (in ClCCl) of 791 nm.

In the case of OC1(c2ccc(-c3cccs3)s2)CCCCC1, the absorption maximum (in C1CCOC1) is reported as 312 nm, the absorption maximum (in CC#N) is reported as 309 nm and the absorption maximum (in CCCCCC) is reported as 308 nm. The absorption maximum (in CCO) was 309 nm, the absorption maximum (in OCCOCCO) was 317 nm and the absorption maximum (in c1ccncc1) was 315 nm.

In the case of COC(=O)[C@H](Cc1ccc2oc3c(c2c1)=CC1=C(c2ccc(OC)cc2)c2cc4c5cc(C[C@H](NC(=O)OC(C)(C)C)C(=O)OC)ccc5oc4n2[B-](F)(F)[N+]=31)NC(=O)OC(C)(C)C, the absorption maximum (in C1CCCCC1) is reported as 586.5 nm, the absorption maximum (in CCOC(C)=O) is reported as 581.5 nm and the absorption maximum (in CO) is reported as 580 nm.

With Cc1ccc(N(c2ccc(C)cc2)c2ccc(-c3c4ccccc4c(-c4ccc(N(c5ccc(C)cc5)c5ccc(C)cc5)cc4)c4nsnc34)cc2)cc1 the absorption maximum (in Cc1ccccc1) was 538 nm and the absorption maximum (in ClCCl) was 536 nm.

Work on CC(C)(C)c1ccc2c(c1)c1cc(C(C)(C)C)ccc1n2-c1ccc(C(=C(C#N)C#N)c2ccc(-n3c4ccc(C(C)(C)C)cc4c4cc(C(C)(C)C)ccc43)cc2)cc1 yielded an absorption maximum (in Cc1ccccc1) of 438 nm.

Molecule CN1C(=CC2=C([O-])C(=Cc3oc(-c4ccc(-c5ccccc5)cc4)c[n+]3C)C2=O)C(C)(C)c2ccccc21 has an absorption maximum (in ClC(Cl)Cl) of 606 nm.

Molecule COC(=O)C(NC(=O)OC(C)(C)C)c1ccc2oc(-c3cc(OC)c(OC)cc3OC)nc2c1 (stereo not given) has an absorption maximum (in CC1CCCCC1) of 327 nm, an absorption maximum (in CC#N) of 333 nm and an absorption maximum (in CO) of 335 nm.

Work on CN(C)c1ccc(C(=Cc2ccc(/C=C(\C#N)c3ccccc3)cc2)c2ccc(N(C)C)cc2)cc1 yielded an absorption maximum (in C1CCOC1) of 436 nm.

CCC1(CC)c2cc(C=O)ccc2-c2ccc(N(C)C)cc21 gave an absorption maximum (in C1CCCCC1) of 385 nm, an absorption maximum (in CC#N) of 385 nm and an absorption maximum (in CCO) of 388 nm. It also gave an absorption maximum (in CCOCC) of 379 nm, an absorption maximum (in CS(C)=O) of 395 nm and an absorption maximum (in ClCCl) of 392 nm. The absorption maximum (in c1ccccc1) was 388 nm.

Work on CC(=O)[B-]1(C(C)=O)OC(c2ccccc2)=CC(c2ccc3ccccc3c2)=[O+]1 yielded an absorption maximum (in CC#N) of 400 nm and an absorption maximum (in ClC(Cl)(Cl)Cl) of 400 nm.

Molecule CC(C)(C(=O)c1ccc(N2c3ccccc3C(C)(C)c3ccccc32)cc1)C(=O)c1ccc(N2c3ccccc3C(C)(C)c3ccccc32)cc1 has an absorption maximum (in Cc1ccccc1) of 390 nm.

Work on c1ccc(C2=C(c3ccccc3)c3cccc4c3c(cc3nc5ccccc5nc34)O2)cc1 yielded an absorption maximum (in ClCCl) of 494 nm.

In the case of O=P1(c2ccccc2)C(c2ccc(N(c3ccccc3)c3ccccc3)cc2)=Cc2cc3ccccc3cc21 (stereo not given), the absorption maximum (in C1CCOC1) is reported as 407 nm, the absorption maximum (in CC#N) is reported as 404 nm and the absorption maximum (in CN(C)C=O) is reported as 407 nm. The absorption maximum (in Cc1ccccc1) was 412 nm, the absorption maximum (in ClC(Cl)Cl) was 417 nm and the absorption maximum (in ClCCl) was 414 nm.

Cc1cc(C)c([B-]2(c3c(C)cc(C)cc3C)[O+]=P(c3ccccc3)(c3ccccc3)c3cc(-c4ccc(C(F)(F)F)cc4)sc3-c3sc(-c4ccc(C(F)(F)F)cc4)cc32)c(C)c1 gave an absorption maximum (in C1CCOC1) of 405 nm.

In the case of CC(C)(C)c1ccc2c(c1)c1cc(C(C)(C)C)ccc1n2-c1ccc(-c2nc(-c3ccc(-n4c5ccc(C(C)(C)C)cc5c5cc(C(C)(C)C)ccc54)cc3)nc(-c3ccc(P(=O)(c4ccccc4)c4ccccc4)cc3)n2)cc1, the absorption maximum (in C1CCOC1) is reported as 386.93 nm, the absorption maximum (in CC#N) is reported as 380.02 nm and the absorption maximum (in CC(C)=O) is reported as 380.02 nm. It also gave an absorption maximum (in CN(C)C=O) of 384.45 nm, an absorption maximum (in Cc1ccccc1) of 393.2 nm and an absorption maximum (in ClC(Cl)Cl) of 430.07 nm. The absorption maximum (in ClCCl) was 382.72 nm.

CCn1c2ccccc2c2cc(C#Cc3cc(C#Cc4ccc5c(c4)c4ccccc4n5CC)nc(OC)n3)ccc21 gave an absorption maximum (in C1CCOC1) of 388 nm, an absorption maximum (in CCOC(C)=O) of 384 nm and an absorption maximum (in CN(C)C=O) of 392 nm. For the same molecule, the absorption maximum (in Cc1ccccc1) was 389 nm and the absorption maximum (in ClCCl) was 390 nm.

Work on CC1(C)CC(/C=C/c2ccc(-n3c4ccccc4c4ccccc43)cc2)=CC(=C(C#N)C#N)C1 yielded an absorption maximum (in C1CCOC1) of 408 nm, an absorption maximum (in CC#N) of 405 nm and an absorption maximum (in CCO) of 414 nm. For the same molecule, the absorption maximum (in CCOC(C)=O) was 407 nm, the absorption maximum (in ClCCl) was 410 nm and the absorption maximum (in c1ccccc1) was 422 nm.

Work on CCOC(=O)CCOc1ccccc1C(c1c(C)[nH]c2ccccc12)c1c(C)[nH]c2ccccc12 yielded an absorption maximum (in CO) of 291 nm and an absorption maximum (in O) of 290 nm.

Work on CN(C)c1cc2sc3cc(N(C)C)c(F)cc3c(=O)c2cc1F yielded an absorption maximum (in CCO) of 382 nm.

Work on COc1cc2c(cc1OC)C1=C[C@H](c3ccccc3)C3(C(C#N)=C(C#N)N1CC2)c1cc(Br)ccc1-c1ccc(Br)cc13 yielded an absorption maximum (in ClCCl) of 311 nm.

In the case of Cc1ccc(C)c2nc3c(=O)[nH]c(=O)[nH]c3nc12, the absorption maximum (in CC#N) is reported as 388 nm.

With CN(C)c1ccc(-c2ccc(-c3cc(N4CCCCC4)c(C#N)c4c3-c3ccccc3CC4)s2)cc1 the absorption maximum (in C1CCCCC1) was 368 nm, the absorption maximum (in C1CCOC1) was 350 nm and the absorption maximum (in CN(C)C=O) was 384 nm. It also gave an absorption maximum (in CS(C)=O) of 379 nm, an absorption maximum (in Cc1ccccc1) of 377 nm and an absorption maximum (in ClC(Cl)Cl) of 377 nm.

Cc1ccc(-c2ccc(-c3ccc(C)cc3)c(/C(=C(/c3ccccc3)c3cc(-c4ccc(C)cc4)ccc3-c3ccc(C)cc3)c3ccccc3)c2)cc1 showed an absorption maximum (in C1CCOC1) of 282 nm.

With C#Cn1c(-c2cc(-c3nc4ccc(C)cc4n3C#C)cc(-c3nc4ccc(C)cc4n3C#C)c2)nc2ccc(C)cc21 the absorption maximum (in ClCCl) was 306.5 nm.

In the case of CCOC(=O)CCCn1c(C(=O)OC)c(C)c2c(=O)n3c(cc21)C(CC)=C(C)C3=O, the absorption maximum (in C1CCCCC1) is reported as 396 nm, the absorption maximum (in CO) is reported as 397 nm and the absorption maximum (in CS(C)=O) is reported as 397 nm. It also gave an absorption maximum (in ClC(Cl)Cl) of 398 nm and an absorption maximum (in c1ccccc1) of 397 nm.

Work on CC1(C)c2ccccc2N(c2ccc(-c3ccc4c(c3)C(=O)c3ccc(-c5ccc(N6c7ccccc7C(C)(C)c7ccccc76)cc5)cc3C4=O)cc2)c2ccccc21 yielded an absorption maximum (in Cc1ccccc1) of 446 nm.

Molecule F[B-]1(F)n2cccc2C(c2ccccc2)=C2C=CC(c3cccc(OC4=[N+]5C(=C(c6ccccc6)c6cc(Br)c(Br)n6[B-]5(F)F)C=C4Br)c3)=[N+]21 has an absorption maximum (in ClC(Cl)Cl) of 556 nm.

C(#Cc1ccccc1)C(C#Cc1ccccc1)=Cc1ccc(-c2ccc(C=C(C#Cc3ccccc3)C#Cc3ccccc3)cc2)cc1 gave an absorption maximum (in ClC(Cl)Cl) of 394 nm.

c1ccc(N2c3ccc4ccccc4c3-c3c4ccccc4cn[n+]3[B-]2(c2ccccc2)c2ccccc2)cc1 gave an absorption maximum (in Cc1ccccc1) of 524 nm.

CCCSc1ccc2n1[B-](F)(F)[N+]1=CC=CC1=C2c1ccccc1 gave an absorption maximum (in CC#N) of 531 nm, an absorption maximum (in CCCCCC) of 536 nm and an absorption maximum (in CCOC(C)=O) of 534 nm. The absorption maximum (in CO) was 536 nm and the absorption maximum (in ClCCl) was 537 nm.

For CCCCCCCCN(CCCCCCCC)c1ccc(/C=C/c2ccc(C#Cc3ccc(-c4ccc(C#Cc5ccc(/C=C/c6ccc(N(CCCCCCCC)CCCCCCCC)cc6)cc5)cc4)cc3)cc2)cc1, the absorption maximum (in Cc1ccccc1) was 406 nm.

For C(=C\c1cccc2ccccc12)/c1ccc(-c2nnc(-c3ccc(-c4cc5ccccc5s4)cc3)o2)cc1, the absorption maximum (in CC#N) was 349 nm, the absorption maximum (in CC(C)=O) was 350 nm and the absorption maximum (in CCCCCCCC) was 354 nm. The absorption maximum (in CCCCCCCCCCO) was 360 nm, the absorption maximum (in CCCCCCCCO) was 359 nm and the absorption maximum (in CCCCCO) was 356 nm. The absorption maximum (in CCCO) was 342 nm, the absorption maximum (in CN(C)C=O) was 357 nm and the absorption maximum (in CO) was 351 nm. For the same molecule, the absorption maximum (in CS(C)=O) was 360 nm.

In the case of N#C/C(=C\c1ccc(-c2ccncc2)cc1)c1ccc(-c2ccncc2)cc1, the absorption maximum (in ClCCl) is reported as 356 nm.

NNC(=O)N1C(=O)c2cc(S(=O)(=O)[O-])cc3c(N)c(S(=O)(=O)[O-])cc(c23)C1=O showed an absorption maximum (in O) of 458 nm.

In the case of COc1ccc(C#Cc2nc(C#Cc3ccc(OC)cc3)c(C#Cc3ccc(OC)cc3)c(C#Cc3ccc(OC)cc3)c2C#Cc2ccc(OC)cc2)cc1, the absorption maximum (in ClCCl) is reported as 421 nm.

With C1=Cc2ccccc2C(=Cc2ccc(-c3ccc(C=C4c5ccccc5C=Cc5ccccc54)cc3)cc2)c2ccccc21 the absorption maximum (in C1CCOC1) was 339 nm.

With COc1ccc2c3c(cccc13)C(=O)c1ccccc1-2 the absorption maximum (in CC(C)=O) was 421.05 nm, the absorption maximum (in CCCCOCCCC) was 412.03 nm and the absorption maximum (in CCOC(C)=O) was 418.06 nm. For the same molecule, the absorption maximum (in CCOCC) was 414.08 nm, the absorption maximum (in Clc1ccccc1) was 423.01 nm and the absorption maximum (in O=C1CCCCC1) was 421.94 nm.

O=C1C=C(Nc2ccccc2)C(=O)c2ccccc21 gave an absorption maximum (in CCCCCC) of 450 nm and an absorption maximum (in CO) of 466 nm.

Molecule Cc1ccc([B-]2(c3ccc(C)cc3)n3nc(C(F)(F)F)cc3-c3c4ccccc4cc[n+]32)cc1 has an absorption maximum (in C1CCCCC1) of 377 nm, an absorption maximum (in Cc1ccccc1) of 377 nm and an absorption maximum (in ClCCl) of 373 nm.

With Cc1nc2c(ccc3c2sc(/C=C/c2ccc(N(c4ccccc4)c4ccccc4)cc2)[n+]3C)s1 the absorption maximum (in CO) was 522 nm and the absorption maximum (in ClC(Cl)Cl) was 561 nm.

With CCOC(=O)c1c(-c2cc3c(ccc4ccccc43)oc2=O)nn(-c2cccc(Cl)c2)c1C(=O)OCC the absorption maximum (in ClCCl) was 361 nm.

Work on CN(C)c1ccc(C=C/C=C/C=C/c2ccc(C#N)cc2)cc1 yielded an absorption maximum (in C1CCOC1) of 420 nm, an absorption maximum (in CC#N) of 418 nm and an absorption maximum (in CCCC#N) of 422 nm. For the same molecule, the absorption maximum (in CCCCCC) was 412 nm, the absorption maximum (in CCCCOCCCC) was 416 nm and the absorption maximum (in CCO) was 418 nm. For the same molecule, the absorption maximum (in CCOCC) was 416 nm.

In the case of F[B-]1(F)OC(c2ccc(C(F)(F)F)cc2)=Cc2ccc3ccccc3[n+]21, the absorption maximum (in ClC(Cl)Cl) is reported as 424 nm.

CC/[NH+]=c1\cc2oc3cc(NCCC(=O)NC(C(=O)OC)C(C)C)c4ccccc4c3nc-2cc1C (stereo not given) showed an absorption maximum (in CCO) of 590 nm and an absorption maximum (in O) of 580 nm.

For Clc1ccccc1N1c2c(sc3ccccc23)Sc2sc3ccccc3c21, the absorption maximum (in ClCCl) was 400 nm.

Work on CCN1c2ccc(/C=N/Nc3ccccn3)cc2Sc2cc(-c3cccc4ccccc34)ccc21 yielded an absorption maximum (in C1CCOC1) of 378 nm, an absorption maximum (in CS(C)=O) of 383 nm and an absorption maximum (in Cc1ccccc1) of 378 nm. The absorption maximum (in ClCCl) was 379 nm.

For COc1ccc(C(=O)COc2c(C)c(=O)n3c(=O)c(C)c(COC(=O)c4ccccc4Cl)n23)cc1, the absorption maximum (in CCO) was 382 nm.

In the case of COC(=O)c1cc(=O)n(C)c2cc(-c3cccc(N(C)C)c3)sc12, the absorption maximum (in CC#N) is reported as 396 nm and the absorption maximum (in ClCCl) is reported as 396 nm.

For COc1ccc(-c2c3cc4cc(C)sc4cc3c(C#Cc3ccccc3)c3cc4cc(C)sc4cc23)cc1, the absorption maximum (in ClCCl) was 539 nm.
